Where “and” joins values, the source holds several entries; their conditions need not be identical. Equal entries are not always repeated.
How the values were obtained:
[1] = 101 kPa, Liquid; for mass density: Vibrating tube method
[2] = xn = mol fraction of the nth substance listed; details: 101 kPa, Liquid; for mass density: Vibrating tube method

c1ccccc1 [benzene]
[1]
Details	mass density [kg/m3]	viscosity [mPa·s]
308.15 K	862.9	0.5272
313.15 K	857.7	0.4942

C1CCCCCCC1 [cyclooctane]
[1]
Details	mass density [kg/m3]	viscosity [mPa·s]
308.15 K	823.6	1.803
313.15 K	819.7	1.636

CCc1ccccc1 [ethylbenzene]
[1]
Details	mass density [kg/m3]	viscosity [mPa·s]
308.15 K	853.7	0.5652
313.15 K	849.5	0.5294
318.15 K	849.5	–

CCc1ccccc1 [ethylbenzene] + c1ccccc1
[2]
Details	mass density, 308.15 K [kg/m3]	mass density, 313.15 K [kg/m3]	viscosity, 308.15 K [mPa·s]	viscosity, 313.15 K [mPa·s]
x2 = 0	853.7	849.5	0.5652	0.5294
x2 = 0.0877	854.1	849.8	0.5584	0.5282
x2 = 0.1855	854.6	850.2	0.5563	0.5234
x2 = 0.295	855.2	850.8	0.5472	0.5172
x2 = 0.4137	856	851.5	0.5392	0.5096
x2 = 0.498	856.6	852.1	0.5382	0.508
x2 = 0.5965	857.5	852.8	0.5382	0.5039
x2 = 0.7108	858.7	853.9	0.5308	0.4996
x2 = 0.7904	859.7	854.8	0.5263	0.4954
x2 = 0.8983	861.2	856.2	0.5309	0.4949

CCCCCCC [heptane]
[1]
Details	mass density [kg/m3]	viscosity [mPa·s]
308.15 K	671.3	0.3497
313.15 K	667.1	0.3329

CCCCCCC [heptane] + C1CCCCCCC1
[2], x1 = 1
Details	mass density [kg/m3]	viscosity [mPa·s]
308.15 K	671.3	0.3497
313.15 K	667.1	0.3329

CCCCCCC [heptane] + CCc1ccccc1
[2], x1 = 1
Details	mass density [kg/m3]	viscosity [mPa·s]
308.15 K	671.3	0.3497
313.15 K	667.1	0.3329

CCCCCCC [heptane] + Cc1ccccc1
[2], x1 = 1
Details	mass density [kg/m3]	viscosity [mPa·s]
308.15 K	671.3	0.3497
313.15 K	667.1	0.3329

CCCCCCC [heptane] + c1ccccc1
[2], x2 = 0
Details	mass density [kg/m3]	viscosity [mPa·s]
308.15 K	671.3	0.3497
313.15 K	667.1	0.3329

Cc1ccccc1 [toluene]
[1]
Details	mass density [kg/m3]	viscosity
308.15 K	852.8	0.494 mPa·s
313.15 K	848.3	0.4676 mPa·s and 0.4755 mPa·s
318.15 K	848.3	–

Cc1ccccc1 [toluene] + C1CCCCCCC1
[2], x1 = 1
Details	mass density [kg/m3]	viscosity [mPa·s]
308.15 K	852.8	0.494
313.15 K	848.3	0.4676

Cc1ccccc1 [toluene] + CCCCCCC
[2]
Details	mass density, 308.15 K [kg/m3]	mass density, 313.15 K [kg/m3]	viscosity, 308.15 K [mPa·s]	viscosity, 313.15 K [mPa·s]
x2 = 0	852.8	848.3	0.494	0.4676
x2 = 0.0901	830.9	826.5	0.4631	0.4392
x2 = 0.1949	807	802.6	0.4406	0.4129
x2 = 0.299	786.6	782.2	0.415	0.3944
x2 = 0.3959	765.9	761.6	0.3967	0.377
x2 = 0.4836	749.6	745.4	0.3861	0.3668
x2 = 0.5809	732.8	728.6	0.3811	0.3562
x2 = 0.6809	716.6	712.5	0.3666	0.3488
x2 = 0.792	699.8	695.6	0.3575	0.341
x2 = 0.8884	686.1	682	0.3605	0.3367

Cc1ccccc1 [toluene] + CCc1ccccc1
[2], x1 = 1
Details	mass density [kg/m3]	viscosity [mPa·s]
308.15 K	852.8	0.494
313.15 K	–	0.4755
318.15 K	848.3	–

Cc1ccccc1 [toluene] + c1ccccc1
[2], x2 = 0
Details	mass density [kg/m3]	viscosity [mPa·s]
308.15 K	852.8	0.494
313.15 K	848.3	0.4676
